The text below walks through data of patent US20250257055A1, “TERTIARY AMIDE DERIVATIVES SUBSTITUTED WITH 4-MEMBERED RING STRUCTURE” (Sumitomo Pharma Co., Ltd., priority 2024, published 2025).

Like-named read-outs stand apart in the source and are kept apart here.

The subject of data set [1] is G-401 cells. Briefly: Cell proliferation inhibition experiment using G-401 cells. The following applies: Homo sapiens, 72 h, cultured for 3 days, CellTiter-Glo. The format is cell-based. In outline:
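Malignant rhabdoid tumor-derived cells, grown in McCoy's 5A with 10% FBS, were seeded at 500 cells/well and dosed one day later (final DMSO 0.1%). After 3 days of culture at 37° C, viability was read by CellTiter-Glo luminescence.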
(ATP-based viability assays read luminescence as a measure of living cells.)

A short description of data set [2]: Membrane permeability test (PAMPA). The class given is in vitro ADME. The procedure, abridged:
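Donor compartment held compound in system solution over a GIT Lipid-0 membrane, with sink buffer on the acceptor side; incubation 4 h at 37° C. Donor and acceptor concentrations were read by UV (190-500 nm), or by LC-MS for weakly absorbing compounds, and Pe (10^−6 cm/sec) was calculated.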

Data set [3] concerns RMGI cells. Put plainly: Cell proliferation inhibition experiment using RMGI cells. The class given is cell-based. The following applies: Homo sapiens, RMG-I, 144 h, cultured for 6 days, CellTiter-Glo. Here is the method:
RMGI cells (derived from ovarian cancer) were obtained from JCRB cell bank. RMGI cells were cultured in Ham's F12 medium containing 10% fetal bovine serum and 1% penicillin/streptomycin under conditions of 37° C. and 5% CO2.
200 cells per well were seeded in a 384-well plate. One day after seeding, Examples 3, 7, 9, 10, 11, 20, and 23 to 25 were added so that the final concentration of DMSO was 0.1%, and the cells were cultured for 6 days. After the culture was completed, the cell viability was measured using CellTiter-Glo Luminescent Cell Viability Assay (Promega, G7570).

In data set [4] the test system is Kuramochi cells. Put plainly: Cell proliferation inhibition experiment using Kuramochi cells. The following applies: 144 h, cultured for 6 days, CellTiter-Glo. The class given is cell-based. The method, then:
Kuramochi cells (derived from ovarian cancer) were obtained from JCRB (Japanese Collection of Research Bioresources) cell bank. Kuramochi cells were cultured in RPMI-1640 medium containing 10% fetal bovine serum and 1% penicillin/streptomycin under conditions of 37° C. and 5% CO2.
500 cells per well were seeded in a 384-well plate. One day after seeding, Examples 3, 7, 9, 10, 11, 20, 23 to 25, and 30 to 34 were added so that the final concentration of DMSO was 0.1%, and the cells were cultured for 6 days. After the culture was completed, the cell viability was measured using CellTiter-Glo Luminescent Cell Viability Assay (Promega, G7570).

Data set [5] deals with recombinant p300 (Homo sapiens (Human), UniProt Q09472). Put plainly: HAT activity inhibition experiment (SensoLyte HAT(p300) Assay Kit). The format is biochemical. The following applies: recombinant p300, histone H3 peptide, acetyl CoA. In outline:
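Recombinant human p300 preincubated with compound 10 min at room temperature, then acetyl-CoA and histone H3 peptide added and reacted 30 min at 37 °C. After stop, developer added for 30 min at room temperature in the dark; fluorescence read at Ex 389/Em 513 nm.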

Data set [6] is described as follows: Pharmacokinetic study in mice. The format is in vivo. The following applies: for AUC / clearance / half-life / Vd / Cmax: female, BALB/c (BALB/cAnN CrlCrlj), mouse, plasma; for Vd: read-out: Vdss. Here is the method: The test compound was administered to 7-week-old female BALB/c (BALB/cAnN CrlCrlj) mice intravenously (dosage: 1 mg/kg) in a 50% PEG solution (0.01 mol/L HCl) or orally (dosage: 10 mg/kg) in a 0.5% methylcellulose aqueous solution, and blood was collected at the following times:
Intravenous administration: 5 min, 15 min, 30 min, 1 hr, 2 hr, 4 hr, 6 hr, and 24 hr after administration
Oral administration: 15 min, 30 min, 1 hr, 2 hr, 4 hr, 6 hr, and 24 hr after administration
The collected blood was centrifuged at 3000 rpm×10 min using a refrigerated centrifuge set at 4° C., and the obtained plasma was measured by LC-MS. A calibration curve was prepared from the value (peak ratio) obtained by dividing the peak area of the test substance by the peak area of the internal standard substance in MS and the concentration of the plasma calibration curve sample. The concentration in the sample was calculated from the peak ratio and the calibration curve of each sample.

Data set [7] has as its target hSERT (Homo sapiens (Human), UniProt P31645). Briefly: Serotonin receptor inhibitory activity evaluation (binding assay, HEK293/hSERT membranes). The following applies: HEK293/hSERT membrane preparation, [3H]Paroxetin. The method, then: The binding evaluation assay was outsourced to Eurofins. Specifically, HEK293/hSERT cells were homogenized in a buffer consisting of 100 mmol/L NaCl, 1 μmol/L Leupeptin, 10 μmol/L PMSF, and 50 mmol/L Tris-HCl (pH7.4). The membrane pellet obtained by centrifugation was resuspended in an incubation buffer consisting of 50 mmol/L Tris-HCl (pH 7.4), 120 mmol/L NaCl, and 5 mmol/L KCl to prepare a membrane preparation. The test compound (1-10 μmol/L DMSO solution), the membrane preparation, and 0.4 nmol/L [^3H]Paroxetin were mixed and incubated at 25° C. for 60 minutes. The cell membrane-[^3H]Paroxetin complex was bound to a GF/B filter mat by vacuum filtration and washed with 50 mmol/L Tris-HCl (pH 7.4). The effect on the receptor was assessed by measuring radioactivity using a scintillation counter.

Data set [8] concerns the target hDAT (Homo sapiens (Human), UniProt Q01959). Briefly: Dopamine receptor inhibitory activity evaluation (binding assay, CHO-S/hDAT membranes). As to conditions: CHO-S/hDAT membrane preparation. Here is the method: The binding evaluation assay was outsourced to Eurofins. Specifically, CHO-S/hDAT cells were homogenized in an incubation buffer consisting of 50 mmol/L Tris-HCl, pH 7.4, 100 mmol/L NaCl, 1 μmol/L Leupeptin, and 10 μmol/L PMSF. The membrane pellet obtained by centrifugation was resuspended in the incubation buffer to prepare a membrane preparation. The test compound (1-10 μmol/L DMSO solution), the membrane preparation, and 0.15 nmol/L […] were mixed and incubated at 4° C. for 180 minutes. The cell membrane-[^125I]RTI-55 complex was bound to a GF/B filter mat by vacuum filtration and washed with 50 mmol/L Tris-HCl, pH 7.4. The effect on the receptor was assessed by measuring radioactivity using a scintillation counter.

Setting [9] is: pH 5.0, 37° C., read-out: pH 5.0 Pe.
Where [10] appears, read: pH 7.4, 37° C., read-out: pH 7.4 Pe.

Chain of recombinant p300 (Q09472 whole entry): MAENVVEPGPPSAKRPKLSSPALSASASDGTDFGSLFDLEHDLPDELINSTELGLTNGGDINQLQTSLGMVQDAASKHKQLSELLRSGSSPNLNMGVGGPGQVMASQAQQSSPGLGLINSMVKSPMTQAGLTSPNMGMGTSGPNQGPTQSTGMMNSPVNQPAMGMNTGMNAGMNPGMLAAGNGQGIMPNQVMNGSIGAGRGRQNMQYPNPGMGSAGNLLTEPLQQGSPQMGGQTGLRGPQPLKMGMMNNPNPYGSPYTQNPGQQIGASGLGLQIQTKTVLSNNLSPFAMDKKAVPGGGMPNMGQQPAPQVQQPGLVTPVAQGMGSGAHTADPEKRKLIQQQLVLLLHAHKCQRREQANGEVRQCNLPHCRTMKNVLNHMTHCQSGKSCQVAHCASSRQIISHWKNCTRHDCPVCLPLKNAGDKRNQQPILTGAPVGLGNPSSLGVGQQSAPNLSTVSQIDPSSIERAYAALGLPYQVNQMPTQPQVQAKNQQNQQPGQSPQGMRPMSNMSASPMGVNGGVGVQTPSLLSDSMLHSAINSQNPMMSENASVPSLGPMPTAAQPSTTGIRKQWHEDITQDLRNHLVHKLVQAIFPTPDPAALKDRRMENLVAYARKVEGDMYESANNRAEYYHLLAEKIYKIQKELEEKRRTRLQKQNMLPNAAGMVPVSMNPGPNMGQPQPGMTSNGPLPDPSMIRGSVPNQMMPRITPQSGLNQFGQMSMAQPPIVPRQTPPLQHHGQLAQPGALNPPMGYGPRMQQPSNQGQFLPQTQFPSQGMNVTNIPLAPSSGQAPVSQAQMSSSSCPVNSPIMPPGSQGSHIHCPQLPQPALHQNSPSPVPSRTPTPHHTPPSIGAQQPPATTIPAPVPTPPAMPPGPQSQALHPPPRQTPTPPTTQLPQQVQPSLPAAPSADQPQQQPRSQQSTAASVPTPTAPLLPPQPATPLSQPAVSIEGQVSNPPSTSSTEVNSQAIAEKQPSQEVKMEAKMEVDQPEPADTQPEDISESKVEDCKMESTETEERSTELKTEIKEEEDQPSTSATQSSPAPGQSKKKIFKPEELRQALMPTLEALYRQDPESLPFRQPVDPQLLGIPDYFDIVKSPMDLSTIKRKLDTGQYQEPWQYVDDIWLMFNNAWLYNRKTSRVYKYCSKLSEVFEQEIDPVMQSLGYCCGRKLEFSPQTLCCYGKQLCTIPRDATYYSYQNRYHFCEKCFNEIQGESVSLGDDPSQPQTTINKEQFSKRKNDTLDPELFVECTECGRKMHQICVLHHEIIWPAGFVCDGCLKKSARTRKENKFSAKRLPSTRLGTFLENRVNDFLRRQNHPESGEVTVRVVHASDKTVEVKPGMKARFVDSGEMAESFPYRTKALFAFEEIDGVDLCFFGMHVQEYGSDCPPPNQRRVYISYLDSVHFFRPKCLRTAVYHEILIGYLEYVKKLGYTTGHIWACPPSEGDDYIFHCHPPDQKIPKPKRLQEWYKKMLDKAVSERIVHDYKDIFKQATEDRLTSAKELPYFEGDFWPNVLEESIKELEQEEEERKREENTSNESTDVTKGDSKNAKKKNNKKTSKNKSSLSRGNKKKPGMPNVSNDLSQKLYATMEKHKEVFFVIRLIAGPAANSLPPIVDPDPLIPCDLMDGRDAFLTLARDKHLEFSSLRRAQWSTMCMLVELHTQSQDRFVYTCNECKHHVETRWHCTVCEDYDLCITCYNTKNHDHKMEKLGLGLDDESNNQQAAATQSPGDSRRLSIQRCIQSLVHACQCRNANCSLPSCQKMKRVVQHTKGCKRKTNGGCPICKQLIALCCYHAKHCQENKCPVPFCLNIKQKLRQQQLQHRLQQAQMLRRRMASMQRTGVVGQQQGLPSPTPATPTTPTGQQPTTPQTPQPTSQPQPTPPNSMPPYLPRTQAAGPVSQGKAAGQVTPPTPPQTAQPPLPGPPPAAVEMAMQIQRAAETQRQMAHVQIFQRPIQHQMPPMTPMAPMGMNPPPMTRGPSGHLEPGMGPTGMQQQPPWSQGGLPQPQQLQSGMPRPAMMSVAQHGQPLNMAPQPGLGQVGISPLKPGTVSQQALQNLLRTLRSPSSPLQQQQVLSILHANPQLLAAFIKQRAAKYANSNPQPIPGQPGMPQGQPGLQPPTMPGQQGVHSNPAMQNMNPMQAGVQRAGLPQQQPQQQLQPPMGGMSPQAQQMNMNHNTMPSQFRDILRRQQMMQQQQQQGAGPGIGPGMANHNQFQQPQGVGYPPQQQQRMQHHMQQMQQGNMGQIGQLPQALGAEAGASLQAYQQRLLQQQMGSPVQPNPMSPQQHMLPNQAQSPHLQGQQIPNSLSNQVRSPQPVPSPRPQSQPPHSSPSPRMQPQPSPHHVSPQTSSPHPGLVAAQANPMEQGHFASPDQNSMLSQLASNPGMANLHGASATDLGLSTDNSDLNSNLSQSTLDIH
Chain of hSERT (P31645 whole entry): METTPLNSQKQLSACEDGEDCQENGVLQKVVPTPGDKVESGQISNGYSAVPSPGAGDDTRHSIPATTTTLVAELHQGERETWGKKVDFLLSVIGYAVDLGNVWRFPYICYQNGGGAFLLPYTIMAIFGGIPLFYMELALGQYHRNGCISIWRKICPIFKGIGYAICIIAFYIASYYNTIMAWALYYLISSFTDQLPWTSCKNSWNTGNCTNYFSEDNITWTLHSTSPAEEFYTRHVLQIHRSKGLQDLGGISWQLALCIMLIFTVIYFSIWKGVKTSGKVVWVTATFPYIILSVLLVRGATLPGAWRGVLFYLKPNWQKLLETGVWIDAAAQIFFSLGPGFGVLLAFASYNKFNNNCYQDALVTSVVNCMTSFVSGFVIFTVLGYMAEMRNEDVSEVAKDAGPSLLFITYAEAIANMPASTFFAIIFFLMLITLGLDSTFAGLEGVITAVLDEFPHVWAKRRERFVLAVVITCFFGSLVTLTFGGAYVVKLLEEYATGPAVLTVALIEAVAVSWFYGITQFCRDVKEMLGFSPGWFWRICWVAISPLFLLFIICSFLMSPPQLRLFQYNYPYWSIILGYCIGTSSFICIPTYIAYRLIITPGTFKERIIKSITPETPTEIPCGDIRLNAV
Chain of hDAT (Q01959 whole entry): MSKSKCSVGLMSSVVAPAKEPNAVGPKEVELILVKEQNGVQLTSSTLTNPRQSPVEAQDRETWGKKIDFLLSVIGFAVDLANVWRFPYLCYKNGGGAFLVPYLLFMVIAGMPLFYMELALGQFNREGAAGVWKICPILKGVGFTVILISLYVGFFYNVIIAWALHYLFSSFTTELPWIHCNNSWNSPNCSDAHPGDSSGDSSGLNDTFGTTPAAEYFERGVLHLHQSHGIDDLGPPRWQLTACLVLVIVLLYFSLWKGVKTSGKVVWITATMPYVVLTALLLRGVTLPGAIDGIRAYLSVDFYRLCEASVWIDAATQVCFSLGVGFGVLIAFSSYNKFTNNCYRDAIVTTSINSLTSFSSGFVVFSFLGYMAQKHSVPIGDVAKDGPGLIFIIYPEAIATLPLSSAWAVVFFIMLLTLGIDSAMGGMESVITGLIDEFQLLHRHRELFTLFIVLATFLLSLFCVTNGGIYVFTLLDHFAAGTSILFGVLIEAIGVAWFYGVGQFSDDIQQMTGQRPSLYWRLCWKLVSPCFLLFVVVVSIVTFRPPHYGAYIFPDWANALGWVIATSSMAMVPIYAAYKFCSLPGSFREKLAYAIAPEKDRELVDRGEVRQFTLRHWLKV

For orientation: IC50 means the concentration that inhibits the measured activity by half. For orientation: AUC means concentration integrated over time. What is called clearance is the rate of elimination divided by the concentration. Usually half-life stands for the time in which the quantity being followed falls by half. Read a high half-life as slow loss. One may read the Cmax as the maximum level reached in the sampled fluid or tissue. In data set [1], `CN1CC(N(Cc2ccc(F)cc2)C(=O)CN2C(=O)N[C@]3(C[C@@H](F)c4cc(-c5cnn(C(C)(C)C#N)c5)ccc43)C2=O)(C(F)(F)F)C1` [Example 11, 2-{(1′S,3′R)-5′-[1-(2-cyanopropan-2-yl)-1H-pyrazol-4-yl]-3′-fluoro-2,5-dioxo-2′,3′-dihydrospiro[imidazolidine-4,1′-inden]-1-yl}-N-[(4-fluorophenyl)methyl]-N-[1-methyl-3-(trifluoromethyl)azetidin-3-yl]acetamide] displayed a half-inhibitory concentration (IC50) of 0.01 µM. For the same molecule, in data set [2] (setting [9]), the Papp at 4 h worked out at 241 nm/s. In addition, in data set [2] (setting [10]), the Papp at 4 h was 272 nm/s. The molecule also showed an IC50 in data set [3] of 0.005 µM. Also, it took 0.048 µM to reach half-maximal inhibition in data set [4] (IC50). Moreover, the IC50 in data set [5] turned out to be 0.0021 µM. Moreover, in data set [6] (intravenous, 1 mg/kg), the AUC worked out at 0.446 µg·h/mL, the clearance was 2.02 L/h/kg, the half-life was 2.12 h and the Vd was 4.1 L/kg. In data set [6] (oral, 10 mg/kg), this molecule had an AUC of 2.5 µg·h/mL, a Cmax of 1.72 µg/mL and a BA of 56.2%.
Usually inhibition stands for the drop in the measured response relative to a control, in per cent. Lower therefore signals a response near the control. As to `CN1CC(N(Cc2ccc(F)cn2)C(=O)CN2C(=O)N[C@]3(C[C@@H](F)c4cc(-c5cnn(CC6COC6)c5)ccc43)C2=O)(C(F)(F)F)C1` [Example 25, 2-[(1′S,3′R)-3′-fluoro-5′-{1-[(oxetan-3-yl)methyl]-1H-pyrazol-4-yl}-2,5-dioxo-2′,3′-dihydrospiro[imidazolidine-4,1′-inden]-1-yl]-N-[(5-fluoropyridin-2-yl)methyl]-N-[1-methyl-3-(trifluoromethyl)azetidin-3-yl]acetamide], the values for the inhibition at 10 µM in data set [7] and in data set [8] were 2% and 9%, respectively. Moreover, the IC50 in data set [1] was 0.059 µM; in data set [3] it was 0.041 µM; in data set [4], 0.424 µM; in data set [5], 0.0057 µM. Also, the values for the Papp at 4 h in data set [2] (setting [9]) and in data set [2] (setting [10]) were 10 nm/s and 61 nm/s, respectively. The AUC in data set [6] (intravenous, 1 mg/kg) was determined as 0.672 µg·h/mL; in data set [6] (oral, 10 mg/kg) it was 1.31 µg·h/mL. This molecule registered a Cmax in data set [6] (oral, 10 mg/kg) of 1.63 µg/mL. This molecule also registered a BA in data set [6] (oral, 10 mg/kg) of 19.6%.
For `O=C1N[C@]2(C[C@@H](F)c3cc(-c4cnn(C5CN(C6COC6)C5)c4)ccc32)C(=O)N1CC(=O)N(Cc1ccc(F)cn1)C1(C(F)(F)F)CC(F)(F)C1` [Example 9, N-[3,3-difluoro-1-(trifluoromethyl)cyclobutyl]-2-[(1′S,3′R)-3′-fluoro-5′-{1-[1-(oxetan-3-yl)azetidin-3-yl]-1H-pyrazol-4-yl}-2,5-dioxo-2′,3′-dihydrospiro[imidazolidine-4,1′-inden]-1-yl]-N-[(5-fluoropyridin-2-yl)methyl]acetamide], the midpoint of inhibition in data set [1], the IC50, lay at 0.038 µM. Further, the Papp at 4 h in data set [2] (setting [9]) was 133 nm/s. The Papp at 4 h in data set [2] (setting [10]) is 153 nm/s. Besides, the IC50 in data set [3] came out at 0.024 µM. Moreover, the half-inhibitory concentration (IC50) in data set [4] worked out at 0.184 µM. In addition, in data set [6] (intravenous, 1 mg/kg), the AUC amounted to 1.2 µg·h/mL, the clearance was 0.714 L/h/kg, the half-life was 2.43 h and the Vd was 2 L/kg. For the same molecule, in data set [6] (oral, 10 mg/kg), the AUC amounted to 13.1 µg·h/mL, the Cmax is 5.37 µg/mL and the BA is on record as 109.1%.
In data set [1], `O=C1N[C@]2(C[C@@H](F)c3cc(-c4cnn(C5CN(C6COC6)C5)c4)ccc32)C(=O)N1CC(=O)N(Cc1ccc(F)cc1)C1(C(F)(F)F)COC1` [Example 3, 2-[(1′S,3′R)-3′-fluoro-5′-{1-[1-(oxetan-3-yl)azetidin-3-yl]-1H-pyrazol-4-yl}-2,5-dioxo-2′,3′-dihydrospiro[imidazolidine-4,1′-inden]-1-yl]-N-[(4-fluorophenyl)methyl]-N-[3-(trifluoromethyl)oxetan-3-yl]acetamide] registered an IC50 of 0.044 µM. The Papp at 4 h in data set [2] (setting [9]) is 149 nm/s. Further, the Papp at 4 h in data set [2] (setting [10]) was determined as 177 nm/s. Also, in data set [3], the IC50 turned out to be 0.018 µM. The molecule also displayed an IC50 in data set [4] of 0.091 µM. In addition, the IC50 in data set [5] stood at 0.0006 µM. In data set [6] (intravenous, 1 mg/kg), the AUC was 0.764 µg·h/mL, the clearance is 1.24 L/h/kg, the half-life is 1.8 h and the Vd is 2 L/kg. In data set [6] (oral, 10 mg/kg), this molecule yielded an AUC of 3.89 µg·h/mL, a Cmax of 2.67 µg/mL and a BA of 50.9%.
